In patent US20230031406A1, “COMPOUNDS AND COMPOSITIONS FOR TREATING CONDITIONS ASSOCIATED WITH NLRP ACTIVITY” (Novartis AG, priority 2018, published 2023):
pIC50: −log10 of the molar value. Where two headings read alike, the source gives them in different places. Values belong to the molecule of their own block, whether it stands above or below them.

Test system: PMA-differentiated THP-1 cells
Assay: hTHP-1 assay containing 10% fetal bovine serum (IL-1β production, Tables B5 and B6)
Assay type: cell-based, human
Protocol: The following protocol is suitable for testing the activity of the compounds disclosed herein. Procedure 1: IL-1β Production in PMA-Differentiated THP-1 Cells Stimulated with Gramicidin.
THP-1 cells were purchased from the American Type Culture Collection and sub-cultured according to instructions from the supplier. Cells were cultured in complete RPMI 1640 (containing 10% heat inactivated FBS, penicillin (100 units/ml) and streptomycin (100 μg/ml)), and maintained in log phase prior to experimental setup. Prior to the experiment, compounds were dissolved in dimethyl sulfoxide (DMSO) to generate a 30 mM stock. The compound stock was first pre-diluted in DMSO to 3, 0.34, 0.042 and 0.0083 mM intermediate concentrations and subsequently spotted using Echo550 liquid handler into an empty 384-well assay plate to achieve desired final concentration (e.g. 100, 33, 11, 3.7, 1.2, 0.41, 0.14, 0.046, 0.015, 0.0051, 0.0017 μM). DMSO was backfilled in the plate to achieve a final DMSO assay concentration of 0.37%. The plate was then sealed and stored at room temperature until required.
THP-1 cells were treated with PMA (Phorbol 12-myristate 13-acetate) (20 ng/ml) for 16-18 hours. On the day of the experiment the media was removed and adherent cells were detached with trypsin for 5 minutes. […] The cells were plated in the 384-well assay plate containing the spotted compounds at a density of 50,000 cells/well (final assay volume 50 μl). Cells were incubated with compounds for 1 hour and then stimulated with gramicidin (5 μM) (Enzo) for 2 hours. Plates were then centrifuged at 340 g for 5 min. Cell free supernatant (40 μL) was collected using a 96—CHannel PlateMaster (Gilson) and the production of IL-1β was evaluated by HTRF (cisbio). The plates were incubated for 18 h at 4° C. and read using the preset HTRF program (donor emission at 620 nm, acceptor emission at 668 nm) of the SpectraMax i3x spectrophotometer (Molecular Devices, software SoftMax 6). A vehicle only control and a dose titration of CRID3 (100-0.0017 μM) were run concurrently with each experiment.
Procedure 2: IL-1β Production in PMA-Differentiated THP-1 Cells Stimulated with Gramicidin.
THP-1 cells were purchased from the American Type Culture Collection and sub-cultured according to instructions from the supplier. Prior to experiments, cells were cultured in complete RPMI 1640 (containing 10% heat inactivated FBS, penicillin (100 units/ml) and streptomycin (100 μg/ml)), and maintained in log phase prior to experimental setup. Prior to the experiment THP-1 were treated with PMA (Phorbol 12-myristate 13-acetate) (20 ng/ml) for 16-18 hours. Compounds were dissolved in dimethyl sulfoxide (DMSO) to generate a 30mM stock. On the day of the experiment the media was removed and adherent cells were detached with trypsin for 5 minutes. […] The cells were plated in a 384-well plate at a density of 50,000 cells/well (final assay volume […]). Compounds were first dissolved in assay medium to obtain a 5× top concentration of 500 μM. 10 step dilutions (1:3) were then undertaken in assay medium containing 1.67% DMSO. 5× compound solutions were added to the culture medium to achieve desired final concentration (e.g. 100, 33, 11, 3.7, 1.2, 0.41, 0.14, 0.046, 0.015, 0.0051, 0.0017 μM). Final DMSO concentration was at 0.37%. Cells were incubated with compounds for 1 hour and then stimulated with gramicidin (5 μM) (Enzo) for 2 hours. Plates were then centrifuged at 340 g for 5 min. Cell free supernatant (40 μL) was collected using a 96—CHannel PlateMaster (Gilson) and the production of IL-1β was evaluated by HTRF (cisbio). A vehicle only control and a dose titration of CRID3 (100-0.0017 μM) were run concurrently with each experiment.
Tables B1, B2, B3, and B4 show the biological activity of compounds in hTHP-1 assay containing 2% fetal bovine serum. […] Key: <0.008 μM=“++++++”; ≥0.008 and <0.04 μM=“+++++”; >0.04 and <0.2 μM=“++++”; ≥0.2 and <1 μM=“+++”; ≥1 and <5 μM=“++”; ≥5 and <30 μM=“+”. […]

[1] = read-out: hTHP-1 IC50 in 10% FBS, hTHP-1 assay containing 10% fetal bovine serum, Table B6
[2] = Homo sapiens, THP-1, read-out: hTHP-1 IC50 in 10% FBS, hTHP-1 assay containing 10% fetal bovine serum, Table B5
[3] = Homo sapiens, THP-1, read-out: hTHP-1 IC50 in 10% FBS, hTHP-1 assay containing 10% fetal bovine serum, Table B6

pIC50 (read-out: hTHP-1 IC50 in 10% FBS, hTHP-1 assay containing 10% fetal bovine serum, Table B5, listed as 851): 6.00 to 6.70
SMILES: C[C@@H]1CCc2c1nc1c(c2NC(=O)N=S(N)(=O)c2nn(C(C)(F)F)cc2F)CCC1 (single isomer, unassigned) [Compound 1117b, (S) or (R)-1-(1,1-difluoroethyl)-4-fluoro-N′-(((R)-3-methyl-1,2,3,5,6,7-hexahydrodicyclopenta[b,e]pyridin-8-yl)carbamoyl)-1H-pyrazole-3-sulfonimidamide]

pIC50 [1]: 6.70 to 7.40
SMILES: NS(=O)(=NC(=O)Nc1c2c(nc3c1CCC3)CCC2)c1nn(C2CC2)cc1F (single isomer, unassigned) [Example 863, (R) or (S)-1-cyclopropyl-4-fluoro-N′-((1,2,3,5,6,7-hexahydrodicyclopenta[b,e]pyridin-8-yl)carbamoyl)-1H-pyrazole-3-sulfonimidamide]

pIC50 [2]: 6.70 to 7.40
SMILES: CCn1cc(F)c(S(N)(=O)=NC(=O)Nc2c3c(nc(C)c2C(F)(F)F)CCC3)n1 (stereo not drawn) [Compound 1012, 1-Ethyl-4-fluoro-N′-((2-methyl-3-(trifluoromethyl)-6,7-dihydro-5H-cyclopenta[b]pyridin-4-yl)carbamoyl)-1H-pyrazole-3-sulfonimidamide]

pIC50 [1]: 6.00 to 6.70
SMILES: NS(=O)(=NC(=O)Nc1c2c(nc3c1CCC3)CCC2)c1nn(C2CC2)cc1F (single isomer, unassigned) [Example 864, (S) or (R)-1-cyclopropyl-4-fluoro-N′-((1,2,3,5,6,7-hexahydrodicyclopenta[b,e]pyridin-8-yl)carbamoyl)-1H-pyrazole-3-sulfonimidamide]

pIC50 (read-out: hTHP-1 IC50 in 10% FBS, hTHP-1 assay containing 10% fetal bovine serum, Table B5, listed as 848): 7.40 to 8.10
SMILES: CCn1cc(F)c(S(N)(=O)=NC(=O)Nc2c3c(nc(C)c2C(F)(F)F)CCC3)n1 (single isomer, unassigned) [Compound 1116a, (R) or (S)-1-ethyl-4-fluoro-N′-((2-methyl-3-(trifluoromethyl)-6,7-dihydro-5H-cyclopenta[b]pyridin-4-yl)carbamoyl)-1H-pyrazole-3-sulfonimidamide]

pIC50 [2]: 7.40 to 8.10
SMILES: C[C@@H]1CCc2c1nc1c(c2NC(=O)N=S(N)(=O)c2nn(C(C)(F)F)cc2F)CCC1 (stereo partly drawn) [Compound 1111, 1-(1,1-Difluoroethyl)-4-fluoro-N′-(((R)-3-methyl-1,2,3,5,6,7-hexahydrodicyclopenta [b,e]pyridin-8-yl)carbamoyl)-1H-pyrazole-3-sulfonimidamide]

pIC50 [1]: 7.40 to 8.10
SMILES: Cc1c(C(F)(F)F)nc2c(c1NC(=O)N=S(N)(=O)c1nn(C3CC3)cc1F)CCC2 (single isomer, unassigned) [Example 869, (R) or (S)-1-cyclopropyl-4-fluoro-N′-((3-methyl-2-(trifluoromethyl)-6,7-dihydro-5H-cyclopenta[b]pyridin-4-yl)carbamoyl)-1H-pyrazole-3-sulfonimidamide]

pIC50 [3]: 7.40 to 8.10
SMILES: C[C@@H]1CCc2c1nc1c(c2NC(=O)N=S(N)(=O)c2nn(C3CC3)cc2F)CCC1 (stereo partly drawn) [Example 855, 1-Cyclopropyl-4-fluoro-N′-(((R)-3-methyl-1,2,3,5,6,7-hexahydrodicyclopenta[b,e]pyridin-8-yl)carbamoyl)-1H-pyrazole-3-sulfonimidamide]

pIC50 [1]: 6.70 to 7.40
SMILES: NS(=O)(=NC(=O)Nc1c2c(nc3c1CCC31CC1)CCC2)c1nn(C2CC2)cc1F (single isomer, unassigned) [Example 866, (S) or (R)-1-cyclopropyl-4-fluoro-N′-((1′,5′,6′,7′-tetrahydro-2′H-spiro[cyclopropan-1,3′-dicyclopenta[b,e]pyridin]-8′-yl)carbamoyl)-1H-pyrazole-3-sulfonimidamide]

pIC50 [3]: 6.70 to 7.40
SMILES: CCn1cc(F)c(S(N)(=O)=NC(=O)Nc2c3c(nc(C(F)(F)F)c2C(F)(F)F)CCC3)n1 (stereo not drawn) [Example 856, N′-((2,3-bis(trifluoromethyl)-6,7-dihydro-5H-cyclopenta[b]pyridin-4-yl)carbamoyl)-1-ethyl-4-fluoro-1H-pyrazole-3-sulfonimidamide]

pIC50 [2]: 6.70 to 7.40
SMILES: CC(C)(O)c1csc(S(N)(=O)=NC(=O)Nc2c3c(nc(C4CC4)c2C2CC2)CCC3)c1F (stereo not drawn) [Compound 1006, N′-((2,3-dicyclopropyl-6,7-dihydro-5H-cyclopenta[b]pyridin-4-yl)-carbamoyl)-3-fluoro-4-(2-hydroxypropan-2-yl)thiophene-2-sulfonimidamide]

pIC50 (read-out: hTHP-1 IC50 in 10% FBS, hTHP-1 assay containing 10% fetal bovine serum, Table B5, listed as 834): 6.70 to 7.40
SMILES: CC(C)(O)c1csc(S(N)(=O)=NC(=O)Nc2c3c(nc(C(F)(F)F)c2C2CC2)CCC3)c1F (single isomer, unassigned) [Compound 1105a, (R) or (S)-N′-((3-cyclopropyl-2-(trifluoromethyl)-6,7-dihydro-5H-cyclopenta[b]pyridin-4-yl)carbamoyl)-3-fluoro-4-(2-hydroxypropan-2-yl)thiophene-2-sulfonimidamide]

pIC50 [3]: 6.70 to 7.40
SMILES: NS(=O)(=NC(=O)Nc1c2c(nc3c1CCC3)CCC2)c1nn(C2CC2)cc1F (stereo not drawn) [Example 858, 1-Cyclopropyl-4-fluoro-N′-((1,2,3,5,6,7-hexahydrodicyclopenta[b,e]pyridin-8-yl)carbamoyl)-1H-pyrazole-3-sulfonimidamide]

pIC50 [2]: 4.52 to 5.30
SMILES: Cc1c(C(F)(F)F)nc2c(c1NC(=O)N=S(N)(=O)c1cnc(C(F)(F)F)s1)CCC2 (stereo not drawn) [Compound 1118, N′-((3-methyl-2-(trifluoromethyl)-6,7-dihydro-5H-cyclopenta [b]pyridin-4-yl)carbamoyl)-2-(trifluoromethyl) thiazole-5-sulfonimidamide]

pIC50 [2]: 6.00 to 6.70
SMILES: Cc1c(C(F)(F)F)nc2c(c1NC(=O)N=S(N)(=O)c1nn(C(C)(F)F)cc1F)CCC2 (stereo not drawn) [Compound 1004, 1-(1,1-Difluoroethyl)-4-fluoro-N′-((3-methyl-2-(trifluoromethyl)-6,7-dihydro-5H-cyclopenta [b]pyridin-4-yl)carbamoyl)-1H-pyrazole-3-sulfonimidamide]

pIC50 (read-out: hTHP-1 IC50 in 10% FBS, hTHP-1 assay containing 10% fetal bovine serum, Table B5, listed as 843): 6.00 to 6.70
SMILES: C[C@@H]1CCc2c1nc1c(c2NC(=O)N=S(N)(=O)c2scc(C(C)(C)O)c2F)CCC1 (single isomer, unassigned) [Compound 1109b, (S) or (R)-3-fluoro-4-(2-hydroxypropan-2-yl)-N′-(((R)-3-methyl-1,2,3,5,6,7-hexahydrodicyclopenta [b,e]pyridin-8-yl)-carbamoyl) thiophene-2-sulfonimidamide]

pIC50 [2]: 6.70 to 7.40
SMILES: CC(C)(O)c1csc(S(N)(=O)=NC(=O)Nc2c3c(nc(C(F)(F)F)c2C2CC2)CCC3)c1F (stereo not drawn) [Compound 1105, N′-((3-cyclopropyl-2-(trifluoromethyl)-6,7-dihydro-5H-cyclopenta [b]pyridin-4-yl)carbamoyl)-3-fluoro-4-(2-hydroxypropan-2-yl) thiophene-2-sulfonimidamide]

pIC50 [2]: 7.40 to 8.10
SMILES: C[C@@H]1CCc2c1nc1c(c2NC(=O)N=S(N)(=O)c2scc(C(C)(C)O)c2F)CCC1 (stereo partly drawn) [Compound 1109, 3-Fluoro-4-(2-hydroxy-propan-2-yl)-N′-(((R)-3-methyl-1,2,3,5,6,7-hexahydrodicyclopenta [b,e]pyridin-8-yl)-carbamoyl)thiophene-2-sulfonimidamide]
